Publication PMC5874726, “Comparison Study of Two Differently Clicked ^18F-Folates—Lipophilicity Plays a Key Role” (Pharmaceuticals, 2018)
Where two headings read alike, the source gives them in different places.

Legend:
healthy balb/c mice = assay: Ex vivo biodistribution in healthy balb/c mice
Description: (§1) All animal experiments were approved by the local ethical committee (permission no. 23177-07/G15-1-033). Balb/c and balb/c nude (Balb/c AnNRj-Foxn1nu) mice were kept on a folate-deficient rodent diet to reduce their blood level of folate to one found in humans. After 7 days of acclimatization, human KB tumor cells (2.5 x 10^6 cells in PBS) were inoculated in the right shoulder of each balb/c nude mouse. All in vivo treatments and imaging experiments were done under isoflurane anesthesia. Eleven or twelve days after inoculation, animals were intravenously injected with ^18F-DBCO-Folate and ^18F-Ala-Folate (5–8 MBq, 100–200 µL) via a lateral tail vein. […] PET/MRI-studies were performed on a nanoScan PET/MRI (Mediso, Budapest, Hungary). First MRI scans (Material Map for co-registration of the PET scan; 3D; GRE-EXT, FOV; slice thickness: 0.6 mm; TE: 2 ms; TR: 15 ms; flip angle: 25 deg) were acquired and then either a dynamic scan over 60 min starting with injection of the radiotracer or a static scan for 10 min after 50 min p.i. were performed. All mice, which underwent ex vivo biodistribution, were scanned first. Afterwards co-registered PET/MR images were analyzed via PMOD (version 3.6) and Inveon Research Workplace (version 4.2). For ex vivo biodistribution studies mice were euthanized 60 min p.i. and organs of interest were dissected, weighed, and measured in a γ-counter (PerkinElmer 2470 Wizard2, Perkin Elmer, Rodgau, Germany). The incorporated radioactivity was expressed as percentage of injected dose per gram of tissue (% ID/g).

FR-negative OC316 cells = assay: Internalization studies in FR-negative OC316 cells; type: cell-based, human; details: blocked KB cells and FR-negative OC316 cells
Protocol: (§2) Two different temperatures (4 °C for receptor binding, 37 °C for receptor binding and internalization) and two different concentrations were assessed. […] Both radiofolates show a concentration as well as temperature depended increase of activity in the FR positive cells. […] This effect is not fully understood, but we presume the high lipophilicity in combination with the increased concentration being responsible for this high non-specific binding. […] Thus, about 90% of ^18F-DBCO-folate remained in solution, which is ideal for such a radiotracer assay set-up (see supporting information for pie chart of activity distribution, Figure S6). For ^18F-Ala-folate the overall receptor-bound and internalized fractions are similar to ^18F-DBCO-folate (see supporting information for pie chart of activity distribution, Figure S7).
As folate-receptor positive control, KB cells (derived from human cervical carcinoma; obtained from German Collection of Microorganisms and Cell Cultures), and OC316 cells (derived from human ovarian adenocarcinoma) as negative control were used. For FACS analysis, data of both cell lines see supporting information Figure S5. The cells were cultured in folate deficient RPMI 1640 medium containing 10% FCS, 1% penicillin-streptomycin and HEPES buffer (10 mM, 5 mL) grown at 37 °C in a humidified atmosphere containing 5% CO2. […]

[1] = design: method as in doi:10.1039/C5MD00508F; details: pH 7.4, shake-flask; cited from earlier work
KB tumor-bearing mice = assay: µPET imaging in KB tumor-bearing mice; type: in vivo, mouse; details: for visualization of KB tumors in maximum intensity projection (MIP) PET images: static scan 50-60 min p.i.
Description: as §1

FR-positive KB cells = assay: Internalization studies in FR-positive KB cells; type: cell-based, human; details: 5 nM, 37 °C, 1 h
Protocol: as §2
As folate-receptor positive control, KB cells (derived from human cervical carcinoma; obtained from German Collection of Microorganisms and Cell Cultures), and OC316 cells (derived from human ovarian adenocarcinoma) as negative control were used. For FACS analysis, data of both cell lines see supporting information Figure S5. The cells were cultured in folate deficient RPMI 1640 medium containing 10% FCS, 1% penicillin-streptomycin and HEPES buffer (10 mM, 5 mL) grown at 37 °C in a humidified atmosphere containing 5% CO2. […] To determine the internalized fraction of both new ^18F-folate derivatives, different concentrations (1 and 5 nM) of the labeled agents were incubated with one million KB or OC316 cells at 4 °C and 37 °C. […] After 1h, the supernatant was removed, cells washed with PBS and with an acetate buffer (pH 3).

[2] = Stability in human serum albumin at 37 °C; details: 2 h
Protocol: The in vitro stability was assessed in human serum albumin at 37 °C.
For testing the stability, 200 µL of ^18F-DBCO-folate or ^18F-Ala-folate (ca. 4 MBq) were incubated at 37 °C in 500 µL human serum albumin. After predetermined time points plasma proteins were precipitated with 600 µL ice-cold acetonitrile followed by centrifugation (10,000 rpm, 10 min). An aliquot of the supernatant was injected into an analytical radio-HPLC.

KB-tumor bearing mice = assay: Ex vivo biodistribution in KB-tumor bearing mice; details: for tumor/liver ratio: liver including gallbladder
Description: as §1

[3] = LogD at pH 7.4 via shake-flask method (octanol/PBS); type: physicochemical; details: pH 7.4, shake-flask
Protocol: The lipophilicity was determined by shake flask method in an octanol/PBS mixture. Table 1 gives an overview of logD values for ^18F-Alakyne and ^18F-Ala-folate as well as for ^18F-DBCO and ^18F-DBCO-folate. […] The reduced lipophilicity is expected to be an indicator for less non-specific background signals and a higher renal clearance rate.

[4] = design: method as in PMID 15745749; details: pH 2, reversed-phase HPLC; cited from earlier work
[5] = pH 2, reversed-phase HPLC
Protocol: The octanol-water (buffer) partition coefficient of ^18F-Alakyne and ^18F-Ala-folate was determined using the standard shake-flask method. Relative lipophilicity (k’ values) was determined by HPLC with an isocratic acetonitrile-phosphoric acid buffer eluent system at pH 2.4 as described elsewhere.

folate receptor (FR) = target: T1, folate receptor (FR) (Homo sapiens, UniProt P15328); assay: Displacement assay using KB cells and [^3H]folic acid; type: binding
T1 construct: endogenous in cells; host or cells: KB cells (human, from the German Collection of Microorganisms and Cell Cultures)

[6] = healthy balb/c mice, 60 min p.i.
[7] = healthy balb/c mice, 60 min p.i., blocked with 100 µg native folic acid
[8] = KB xenograft mice, 60 min p.i., blockade with 100 µg native folic acid
[9] = balb/c nude (Balb/c AnNRj-Foxn1nu), mouse, in vivo, 60 min

T1 sequence (P15328 25-257): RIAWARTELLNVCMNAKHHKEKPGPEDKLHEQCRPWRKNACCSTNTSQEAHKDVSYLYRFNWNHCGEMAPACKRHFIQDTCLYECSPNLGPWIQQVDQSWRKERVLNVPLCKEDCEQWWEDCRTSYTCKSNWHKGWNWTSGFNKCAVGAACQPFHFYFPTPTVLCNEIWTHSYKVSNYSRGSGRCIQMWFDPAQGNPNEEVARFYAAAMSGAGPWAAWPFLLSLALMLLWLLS

## Nc1nc2ncc(CNc3ccc(C(=O)NC(CCC(=O)NCCOCCOCCOCCn4nnc5c4-c4ccccc4CN(C(=O)CCNC(=O)CCOCCOCCOCC[18F])c4ccccc4-5)C(=O)O)cc3)nc2c(=O)[nH]1 (centres unmarked) [^18F-DBCO-folate]
Healthy balb/c mice; [6]
  uptake Blood: 0.08 ± 0.01 %ID/g tissue
  uptake Heart: 0.09 ± 0.01 %ID/g tissue
  uptake Inguinal lymph nodes: 0.18 ± 0.08 %ID/g tissue
  uptake Intestines (empty): 0.87 ± 0.57 %ID/g tissue
  uptake Left kidney: 3.90 ± 0.38 %ID/g tissue
  uptake Liver: 0.24 ± 0.02 %ID/g tissue
  uptake Lung: 0.35 ± 0.27 %ID/g tissue
  uptake Muscle: 0.06 ± 0.01 %ID/g tissue
  uptake Pancreas: 0.08 ± 0.01 %ID/g tissue
  uptake Right kidney: 3.99 ± 0.37 %ID/g tissue
  uptake Spleen: 0.07 ± 0.02 %ID/g tissue
Healthy balb/c mice; [7]
  uptake Blood: 0.12 ± 0.05 %ID/g tissue
  uptake Heart: 0.11 ± 0.06 %ID/g tissue
  uptake Inguinal lymph nodes: 0.10 ± 0.08 %ID/g tissue
  uptake Intestines (empty): 0.33 ± 0.22 %ID/g tissue
  uptake Left kidney: 0.40 ± 0.07 %ID/g tissue
  uptake Liver: 0.33 ± 0.08 %ID/g tissue
  uptake Lung: 0.36 ± 0.11 %ID/g tissue
  uptake Muscle: 0.07 ± 0.05 %ID/g tissue
  uptake Pancreas: 0.09 ± 0.05 %ID/g tissue
  uptake Right kidney: 0.38 ± 0.07 %ID/g tissue
  uptake Spleen: 0.11 ± 0.06 %ID/g tissue
FR-negative OC316 cells
  non-specific binding: distinct non-specific binding
[1]
  logD7.4 Value: 0.6 ± 0.07 [18]
KB tumor-bearing mice; PET
  uptake in the bones (in vivo defluorination): Negligible uptake
KB tumor-bearing mice
  visualization of KB tumors in maximum intensity projection (MIP) PET images: impeded
FR-positive KB cells
  fraction of tracer internalized: about 3%
  fraction of tracer receptor bound: about 7%
  fraction of tracer remained in solution: about 90%
[2]
  still intact after incubation: > 90%
KB-tumor bearing mice; 60 min p.i.
  tumor/blood ratio: 5.61
  tumor/muscle ratio: 6.86
  tumor/liver ratio: 2.58
KB-tumor bearing mice; KB xenograft mice, 60 min p.i.
  uptake Appendix: 0.13 ± 0.02 %ID/g tissue
  uptake Blood: 0.09 ± 0.04 %ID/g tissue
  uptake Heart: 0.08 ± 0.02 %ID/g tissue
  uptake Inguinal lymph nodes: 0.48 ± 0.14 %ID/g tissue
  uptake Intestines (empty): 0.42 ± 0.52 %ID/g tissue
  uptake Left kidney: 4.83 ± 0.90 %ID/g tissue
  uptake Liver: 0.18 ± 0.07 %ID/g tissue
  uptake Lung: 0.17 ±0.06 %ID/g tissue
  uptake Muscle: 0.07 ± 0.01 %ID/g tissue
  uptake Pancreas: 0.07 ±0.01 %ID/g tissue
  uptake Right kidney: 4.76 ± 0.89 %ID/g tissue
  uptake Spleen: 0.06 ± 0.02 %ID/g tissue
  uptake Stomach (empty): 0.82 ± 0.64 %ID/g tissue
  uptake Tumor: 0.48 ± 0.14 %ID/g tissue
KB-tumor bearing mice; [8]
  uptake Appendix: 0.07 ± 0.01 %ID/g tissue
  uptake Blood: 0.06 ± 0.04 %ID/g tissue
  uptake Heart: 0.04 ± 0.02 %ID/g tissue
  uptake Inguinal lymph nodes: 0.04 ± 0.02 %ID/g tissue
  uptake Intestines (empty): 0.56 ± 0.81 %ID/g tissue
  uptake Left kidney: 0.30 ± 0.04 %ID/g tissue
  uptake Liver: 0.14 ± 0.06 %ID/g tissue
  uptake Lung: 0.13 ± 0.05 %ID/g tissue
  uptake Muscle: 0.02 ± 0.01 %ID/g tissue
  uptake Pancreas: 0.03 ± 0.02 %ID/g tissue
  uptake Right kidney: 0.30 ± 0.02 %ID/g tissue
  uptake Spleen: 0.05 ± 0.03 %ID/g tissue
  uptake Stomach (empty): 0.22 ± 0.09 %ID/g tissue
  uptake Tumor: 0.09 ± 0.04 %ID/g tissue
KB-tumor bearing mice; preinjection of excess native folic acid, 60 min p.i.
  reduction of activity in the tumor in the blocked group: 81%

## C#CCNC(C[18F])C(=O)O (centres unmarked) [^18F-Alakyne]
[3]
  logD7.4 Value: −1.18 ± 0.03

## O=C(CCOCCOCCOCC[18F])NCCC(=O)N1Cc2ccccc2C#Cc2ccccc21 [^18F-DBCO]
[1]
  logD7.4 Value: 1.2 ± 0.07 [18]

## Nc1nc(=O)c2nc(CNc3ccc(C(=O)N[C@@H](CCC(=O)O)C(=O)O)cc3)cnc2[nH]1 [native folic acid, folic acid]
[4]
  k′ Value: 0.3 [5]

## Nc1nc2ncc(CNc3ccc(C(=O)NC(CCC(=O)NCCOCCOCCOCCn4cc(CNC(C[18F])C(=O)O)nn4)C(=O)O)cc3)nc2c(=O)[nH]1 (centres unmarked) [^18F-Ala-folate]
Healthy balb/c mice; Balb/c, mouse, in vivo, 60 min
  uptake Appendix: 0.20 ± 0.11 %ID/g tissue
  uptake Blood: 0.29 ± 0.29 %ID/g tissue
  uptake Heart: 0.32 ± 0.21 %ID/g tissue
  uptake Inguinal lymph nodes: 0.93 ± 0.67 %ID/g tissue
  uptake Intestines (empty): 1.67 ± 1.12 %ID/g tissue
  uptake Left kidney: 19.90 ± 8.63 %ID/g tissue
  uptake Liver: 1.51 ± 1.26 %ID/g tissue
  uptake Lung: 0.36 ± 0.16 %ID/g tissue
  uptake Muscle: 0.26 ± 0.13 %ID/g tissue
  uptake Pancreas: 0.33 ± 0.20 %ID/g tissue
  uptake Right kidney: 20.55 ± 9.71 %ID/g tissue
  uptake Spleen: 0.15 ± 0.09 %ID/g tissue
  uptake Stomach (empty): 0.71 ± 0.24 %ID/g tissue
FR-negative OC316 cells
  non-specific binding: lower non-specific binding
KB tumor-bearing mice
  visualization of KB tumors in maximum intensity projection (MIP) PET images: displayed the KB-tumor in the MIP
KB-tumor bearing mice; 60 min p.i.
  tumor/blood ratio: 10.11
  tumor/kidney ratio: 0.12
  tumor/muscle ratio: 7.64
  tumor/liver ratio: 0.98
KB-tumor bearing mice; [9]
  reduction of activity in the tumor in the blocked group: 85%
  tumor uptake relative to ^18F-DBCO-folate: 3 times
  uptake Appendix: 0.39 ± 0.22 %ID/g tissue
  uptake Blood: 0.17 ± 0.05 %ID/g tissue
  uptake Heart: 0.22 ± 0.09 %ID/g tissue
  uptake Inguinal lymph nodes: 0.57 ± 0.15 %ID/g tissue
  uptake Intestines (empty): 3.42 ± 2.18 %ID/g tissue
  uptake Left kidney: 14.49 ± 3.42 %ID/g tissue
  uptake Liver: 1.71 ± 1.02 %ID/g tissue
  uptake Lung: 0.28 ± 0.05 %ID/g tissue
  uptake Muscle: 0.22 ± 0.02 %ID/g tissue
  uptake Pancreas: 0.26 ± 0.11 %ID/g tissue
  uptake Right kidney: 14.27 ± 3.35 %ID/g tissue
  uptake Spleen: 0.16 ± 0.04 %ID/g tissue
  uptake Stomach (empty): 0.95 ± 0.50 %ID/g tissue
  uptake Tumor: 1.68 ± 0.13 %ID/g tissue

## Nc1nc2ncc(CNc3ccc(C(=O)NC(CCC(=O)NCCOCCOCCOCCn4cc(CNC(CF)C(=O)O)nn4)C(=O)O)cc3)nc2c(=O)[nH]1 (centres unmarked) [^19F-Ala-folate]
[5]
  k′ Value: 0.27
Folate receptor (FR); Cheng-Prusoff equation with Kd ([^3H]folic acid) = 1.0 nM
  Ki: 5.5 ± 0.4 nM
Folate receptor (FR); KB-cells, [^3H]folic acid
  IC50: 6.4 ± 0.5 nM
  pIC50: 8.20 ± 0.05
